ChEMBL document CHEMBL3797123, “Amino(oxo)acetate moiety: A new functional group to improve the cytotoxicity of betulin derived carbamates” (Bioorg Med Chem Lett, 2016)

Key:
Format in all cases: functional, cell-based
HeLa = assay: Cytotoxicity against human HeLa cells after 96 hrs by SRB assay
A2780 = assay: Cytotoxicity against human A2780 cells after 96 hrs by SRB assay; conditions: A2780, 96 h
A549 = assay: Cytotoxicity against human A549 cells after 96 hrs by SRB assay; conditions: A549, 96 h
HT-29 = assay: Cytotoxicity against human HT-29 cells after 96 hrs by SRB assay; conditions: HT-29, 96 h
MCF7 = assay: Cytotoxicity against human MCF7 cells after 96 hrs by SRB assay; conditions: MCF7, 96 h
[1] = Cytotoxicity against human 518A2 cells after 96 hrs by SRB assay; conditions: 518A2, 96 h

Row | SMILES | EC50 (HeLa) | EC50 (A2780) | EC50 (A549) | EC50 (HT-29) | EC50 (MCF7) | EC50 [1]
1 | C=C(C)[C@@H]1CC[C@]2(C(=O)O)CC[C@]3(C)[C@H](CC[C@@H]4[C@@]5(C)CC[C@H](O)C(C)(C)[C@@H]5CC[C@]43C)[C@@H]12 [BETULINIC ACID] | 8.8 µM | – | – | – | – | –
2 | C=C(C)[C@@H]1CC[C@]2(COC(=O)NCCCCCC)CC[C@]3(C)[C@H](CC[C@@H]4[C@@]5(C)CC[C@H](OC(=O)C(N)=O)C(C)(C)[C@@H]5CC[C@]43C)[C@@H]12 | 10.1 µM | 2 µM | 7.4 µM | 7.3 µM | 5.6 µM | 6.5 µM
3 | C=C(C)[C@@H]1CC[C@]2(COC(=O)NCCC)CC[C@]3(C)[C@H](CC[C@@H]4[C@@]5(C)CC[C@H](OC(=O)C(N)=O)C(C)(C)[C@@H]5CC[C@]43C)[C@@H]12 | 12.8 µM | 7 µM | 10.5 µM | 12.8 µM | 12.5 µM | 9.9 µM
4 | C=C(C)[C@@H]1CC[C@]2(COC(=O)NCC)CC[C@]3(C)[C@H](CC[C@@H]4[C@@]5(C)CC[C@H](OC(=O)C(N)=O)C(C)(C)[C@@H]5CC[C@]43C)[C@@H]12 | 14.1 µM | 10 µM | 13.7 µM | 15.3 µM | 11.2 µM | 11.4 µM
5 | C=C(C)[C@@H]1CC[C@]2(COC(=O)NCCCC)CC[C@]3(C)[C@H](CC[C@@H]4[C@@]5(C)CC[C@H](OC(=O)C(N)=O)C(C)(C)[C@@H]5CC[C@]43C)[C@@H]12 | 11.2 µM | 6.4 µM | 9.1 µM | 10.1 µM | 10 µM | 7.9 µM
6 | C=C(C)[C@@H]1CC[C@]2(COC(=O)NCCCCCC)CC[C@]3(C)[C@H](CC[C@@H]4[C@@]5(C)CC[C@H](O)C(C)(C)[C@@H]5CC[C@]43C)[C@@H]12 | – | 7.6 µM | – | – | – | 5.6 µM
7 | C=C(C)[C@@H]1CC[C@]2(COC(=O)Nc3ccccc3)CC[C@]3(C)[C@H](CC[C@@H]4[C@@]5(C)CC[C@H](OC(=O)C(N)=O)C(C)(C)[C@@H]5CC[C@]43C)[C@@H]12 | 10.5 µM | 17.3 µM | 20.4 µM | 21.4 µM | 17.6 µM | 15.3 µM
8 | C=C(C)[C@@H]1CC[C@]2(CO)CC[C@]3(C)[C@H](CC[C@@H]4[C@@]5(C)CC[C@H](OC(C)=O)C(C)(C)[C@@H]5CC[C@]43C)[C@@H]12 | > 30 µM | 28.5 µM | > 30 µM | > 30 µM | 20.2 µM | > 30 µM
9 | C=C(C)[C@@H]1CC[C@]2(COC(C)=O)CC[C@]3(C)[C@H](CC[C@@H]4[C@@]5(C)CC[C@H](OC(C)=O)C(C)(C)[C@@H]5CC[C@]43C)[C@@H]12 [BETULIN DIACETATE] | > 30 µM | 20.3 µM | 21.5 µM | 25.7 µM | – | –
10 | C=C(C)[C@@H]1CC[C@]2(CO)CC[C@]3(C)[C@H](CC[C@@H]4[C@@]5(C)CC[C@H](O)C(C)(C)[C@@H]5CC[C@]43C)[C@@H]12 [BETULIN] | > 30 µM | – | – | > 30 µM | – | –
